Experimental data taken from ChEMBL document CHEMBL1129860, “Studies on penam sulfones III. Synthesis and -lactamase inhibitory activity of sodium (6R)-6-(-hydroxybenzyl)-2-methoxyiminomethyl-2-methylpenam-3-carboxylate 1,1-dioxide and sodium 2-acyl-2-methylpenam-3-carboxylate 1,1-dioxide” (1997).
≈ marks a conversion by molar mass, not a printed value. One block for each compound: values may come before it.

Experiments:
Type in all cases: functional
Escherichia coli [1] = assay: In vitro minimal inhibitory concentration (MIC) of compound in combination with piperacillin (PIPC) showed synergic activity against Escherichia coli OXA 1
Staphylococcus aureus [2] = assay: In vitro minimal inhibitory concentration (MIC) of compound in combination with piperacillin (PIPC) showed synergic activity against Staphylococcus aureus 80K
Klebsiella aerogenes [3] = assay: In vitro minimal inhibitory concentration (MIC) of compound in combination with piperacillin (PIPC) showed synergic activity against Enterobacter aerogenes 41003
Escherichia coli [4] = assay: In vitro minimal inhibitory concentration (MIC) of compound in combination with piperacillin (PIPC) showed synergic activity against Escherichia coli TEM 3
Escherichia coli [5] = assay: In vitro minimal inhibitory concentration (MIC) of compound in combination with piperacillin (PIPC) showed synergic activity against Escherichia coli SHV 1
Citrobacter freundii [6] = assay: In vitro minimal inhibitory concentration (MIC) of compound in combination with piperacillin (PIPC) showed synergic activity against Citrobacter freundii 44032
Escherichia coli [7] = assay: In vitro minimal inhibitory concentration (MIC) of compound in combination with piperacillin (PIPC) showed synergic activity against Escherichia coli SHV 5
Morganella morganii [8] = assay: In vitro minimal inhibitory concentration (MIC) of compound in combination with piperacillin (PIPC) showed synergic activity against Morganella morganii 36014
Serratia marcescens [9] = assay: In vitro minimal inhibitory concentration (MIC) of compound in combination with piperacillin (PIPC) showed synergic activity against Serratia marcescens 200 L
Citrobacter freundii [10] = assay: In vitro minimal inhibitory concentration (MIC) of compound in combination with piperacillin (PIPC) showed synergic activity against Citrobacter freundii 2046E
Klebsiella aerogenes [11] = assay: In vitro minimal inhibitory concentration (MIC) of compound in combination with piperacillin (PIPC) showed synergic activity against Enterobacter aerogenes 41004
Enterobacter cloacae [12] = assay: In vitro minimal inhibitory concentration (MIC) of compound in combination with piperacillin (PIPC) showed synergic activity against Enterobacter cloacae 40011
Pseudomonas aeruginosa [13] = assay: In vitro minimal inhibitory concentration (MIC) of compound in combination with piperacillin (PIPC) showed synergic activity against Pseudomonas aeruginosa 46220 (DR-2)
Proteus vulgaris [14] = assay: In vitro minimal inhibitory concentration (MIC) of compound in combination with piperacillin (PIPC) showed synergic activity against Proteus vulgaris CT 106
Klebsiella pneumoniae [15] = assay: In vitro minimal inhibitory concentration (MIC) of compound in combination with piperacillin (PIPC) showed synergic activity against Klebsiella pneumoniae CTX 1
Staphylococcus aureus [16] = assay: In vitro minimal inhibitory concentration (MIC) of compound in combination with piperacillin (PIPC) showed synergic activity against Staphylococcus aureus 54K
Escherichia coli [17] = assay: In vitro minimal inhibitory concentration (MIC) of compound in combination with piperacillin (PIPC) showed synergic activity against Escherichia coli TEM 7
Klebsiella aerogenes [18] = assay: In vitro minimal inhibitory concentration (MIC) of compound in combination with piperacillin (PIPC) showed synergic activity against Enterobacter aerogenes 41006
Enterobacter cloacae [19] = assay: In vitro minimal inhibitory concentration (MIC) of compound in combination with piperacillin (PIPC) showed synergic activity against Enterobacter cloacae P99
Escherichia coli [20] = assay: In vitro minimal inhibitory concentration (MIC) of compound in combination with piperacillin (PIPC) showed synergic activity against Escherichia coli OXA 3
Enterobacter cloacae [21] = assay: In vitro minimal inhibitory concentration (MIC) of compound in combination with piperacillin (PIPC) showed synergic activity against Enterobacter cloacae 40015
Staphylococcus aureus [22] = assay: In vitro minimal inhibitory concentration of compound against Staphylococcus aureus 54K
Enterobacter cloacae [23] = assay: In vitro minimal inhibitory concentration of compound against Enterobacter cloacae 40011
Escherichia coli [24] = assay: In vitro minimal inhibitory concentration of compound against Escherichia coli TEM 3
Serratia marcescens [25] = assay: In vitro minimal inhibitory concentration of compound against Serratia marcescens 200 L
Escherichia coli [26] = assay: In vitro minimal inhibitory concentration of compound against Escherichia coli SHV 1
Klebsiella aerogenes [27] = assay: In vitro minimal inhibitory concentration of compound against Enterobacter aerogenes 41004
Staphylococcus aureus [28] = assay: In vitro minimal inhibitory concentration of compound against Staphylococcus aureus 80K
Klebsiella aerogenes [29] = assay: In vitro minimal inhibitory concentration of compound against Enterobacter aerogenes 41003
Pseudomonas aeruginosa [30] = assay: In vitro minimal inhibitory concentration of compound against Pseudomonas aeruginosa 46220 (DR-2)
Klebsiella pneumoniae [31] = assay: In vitro minimal inhibitory concentration of compound against Klebsiella pneumoniae CTX 1
Citrobacter freundii [32] = assay: In vitro minimal inhibitory concentration of compound against Citrobacter freundii 44032
Escherichia coli [33] = assay: In vitro minimal inhibitory concentration of compound against Escherichia coli SHV 5
Escherichia coli [34] = assay: In vitro minimal inhibitory concentration of compound against Escherichia coli TEM 7
Proteus vulgaris [35] = assay: In vitro minimal inhibitory concentration of compound against Proteus vulgaris CT 106
Enterobacter cloacae [36] = assay: In vitro minimal inhibitory concentration of compound against Enterobacter cloacae P99
Enterobacter cloacae [37] = assay: In vitro minimal inhibitory concentration of compound against Enterobacter cloacae 40015
Citrobacter freundii [38] = assay: In vitro minimal inhibitory concentration of compound against Citrobacter freundii 2046E
Morganella morganii [39] = assay: In vitro minimal inhibitory concentration of compound against Morganella morganii 36014
Klebsiella aerogenes [40] = assay: In vitro minimal inhibitory concentration of compound against Enterobacter aerogenes 41006
Escherichia coli [41] = assay: In vitro minimal inhibitory concentration of compound against Escherichia coli OXA 1
Escherichia coli [42] = assay: In vitro minimal inhibitory concentration of compound against Escherichia coli OXA 3

- MIC (Escherichia coli [1]): 1.56 µg/mL
- MIC (Staphylococcus aureus [2]): 3.13 µg/mL
- MIC (Klebsiella aerogenes [3]): 3.13 µg/mL
- MIC (Escherichia coli [4]): 3.13 µg/mL
- MIC (Escherichia coli [5]): 3.13 µg/mL
- MIC (Citrobacter freundii [6]): 12.5 µg/mL
- MIC (Escherichia coli [7]): 1.56 µg/mL
- MIC (Morganella morganii [8]): 0.39 µg/mL
- MIC (Serratia marcescens [9]): 3.13 µg/mL
- MIC (Citrobacter freundii [10]): 1.56 µg/mL
- MIC (Klebsiella aerogenes [11]): 6.25 µg/mL
- MIC (Enterobacter cloacae [12]): 6.25 µg/mL
- MIC (Pseudomonas aeruginosa [13]): 6.25 µg/mL
- MIC (Proteus vulgaris [14]): 25 µg/mL
- MIC (Klebsiella pneumoniae [15]): 12.5 µg/mL
- MIC (Staphylococcus aureus [16]): 6.26 µg/mL
- MIC (Escherichia coli [17]): 1.56 µg/mL
- MIC (Klebsiella aerogenes [18]): 12.5 µg/mL
- MIC (Enterobacter cloacae [19]): 12.5 µg/mL
- MIC (Escherichia coli [20]): 1.56 µg/mL
- MIC (Enterobacter cloacae [21]): 25 µg/mL
Compound: CC(=O)[C@@]1(C)[C@H](C(=O)[O-])N2C(=O)CC2S1(=O)=O.CCN1CCN(C(=O)NC(C(=O)N[C@@H]2C(=O)N3[C@@H]2SC(C)(C)[C@@H]3C(=O)O)c2ccccc2)C(=O)C1=O.[Na+] (stereo partly drawn)

Compound: CCN1CCN(C(=O)N[C@@H](C(=O)N[C@@H]2C(=O)N3[C@@H]2SC(C)(C)[C@@H]3C(=O)O)c2ccccc2)C(=O)C1=O [PIPERACILLIN]
- MIC (Staphylococcus aureus [22]): 200 µg/mL (≈ 386 µM)
- MIC (Enterobacter cloacae [23]): 50 µg/mL (≈ 96.6 µM)
- MIC (Escherichia coli [24]): 200 µg/mL (≈ 386 µM)
- MIC (Serratia marcescens [25]): 200 µg/mL (≈ 386 µM)
- MIC (Escherichia coli [26]): > 400 µg/mL
- MIC (Klebsiella aerogenes [27]): 12.5 µg/mL (≈ 24.2 µM)
- MIC (Staphylococcus aureus [28]): 50 µg/mL (≈ 96.6 µM)
- MIC (Klebsiella aerogenes [29]): 12.5 µg/mL (≈ 24.2 µM)
- MIC (Pseudomonas aeruginosa [30]): 100 µg/mL (≈ 193 µM)
- MIC (Klebsiella pneumoniae [31]): > 400 µg/mL
- MIC (Citrobacter freundii [32]): 200 µg/mL (≈ 386 µM)
- MIC (Escherichia coli [33]): 200 µg/mL (≈ 386 µM)
- MIC (Escherichia coli [34]): > 400 µg/mL
- MIC (Proteus vulgaris [35]): 200 µg/mL (≈ 386 µM)
- MIC (Enterobacter cloacae [36]): 100 µg/mL (≈ 193 µM)
- MIC (Enterobacter cloacae [37]): 100 µg/mL (≈ 193 µM)
- MIC (Citrobacter freundii [38]): > 400 µg/mL
- MIC (Morganella morganii [39]): 50 µg/mL (≈ 96.6 µM)
- MIC (Klebsiella aerogenes [40]): 100 µg/mL (≈ 193 µM)
- MIC (Escherichia coli [41]): 25 µg/mL (≈ 48.3 µM)
- MIC (Escherichia coli [42]): 3.13 µg/mL (≈ 6.05 µM)

- MIC (Escherichia coli [1]): 3.13 µg/mL
- MIC (Staphylococcus aureus [2]): 0.39 µg/mL
- MIC (Klebsiella aerogenes [3]): 12.5 µg/mL
- MIC (Escherichia coli [4]): 3.13 µg/mL
- MIC (Escherichia coli [5]): 1.56 µg/mL
- MIC (Citrobacter freundii [6]): 200 µg/mL
- MIC (Escherichia coli [7]): ≤ 0.2 µg/mL
- MIC (Morganella morganii [8]): ≤ 0.2 µg/mL
- MIC (Serratia marcescens [9]): 0.78 µg/mL
- MIC (Citrobacter freundii [10]): 0.78 µg/mL
- MIC (Klebsiella aerogenes [11]): 12.5 µg/mL
- MIC (Enterobacter cloacae [12]): 6.25 µg/mL
- MIC (Pseudomonas aeruginosa [13]): 12.5 µg/mL
- MIC (Proteus vulgaris [14]): 1.56 µg/mL
- MIC (Klebsiella pneumoniae [15]): 6.25 µg/mL
- MIC (Staphylococcus aureus [16]): 0.78 µg/mL
- MIC (Escherichia coli [17]): 0.78 µg/mL
- MIC (Klebsiella aerogenes [18]): 100 µg/mL
- MIC (Enterobacter cloacae [19]): 25 µg/mL
- MIC (Escherichia coli [20]): 1.56 µg/mL
- MIC (Enterobacter cloacae [21]): 50 µg/mL
Compound: CCN1CCN(C(=O)NC(C(=O)N[C@@H]2C(=O)N3[C@@H]2SC(C)(C)[C@@H]3C(=O)O)c2ccccc2)C(=O)C1=O.C[C@]1(Cn2ccnn2)[C@H](C(=O)[O-])N2C(=O)CC2S1(=O)=O.[Na+] (stereo partly drawn)
